Measurements: patent publication US20070172957A1, “Methods of identifying anti-inflammatory macrolides” (TAISHO PHARMACEUTICAL CO., LTD., priority 2004, published 2007)

System: A549 cells
Assay: A549 microarray comparing macrolides with arachidonic acid pathway inhibitors, with IL-1β stimulation (Appendix C, Tables 6-9), and correlation analysis
Format: cell-based
Source text: One inhibitor, triacsin C, acts on AA biosynthesis by inhibiting arachidonyl CoA synthetases, blocking the incorporation of free AA into phospholipids. Triacsin C is reasonably specific for AA compared to other fatty acids. However, triacsin C structurally resembles AA so it also may interfere with other steps in the AA pathway. Indomethacin is an inhibitor of COX1 and COX2 enzyme activities and therefore specifically blocks metabolism of AA into prostaglandins. […] It inhibits transcription of PLA2, and transcriptionally and post-transcriptionally regulates COX1 and COX2 activities. Dexamethasone has additional effects unrelated to AA through binding with the glucocorticoid receptor to glucocortcoid response elements.
A549 cells were pre-incubated overnight (17 hours) with macrolides (10 μM FMA-9045, 50 μM clarithromycin, 50 μM roxithromycin, 50 μM josamycin) and 15 μM triacsin C, and pre-incubated 2 hours with 100 nM indomethacin and 100 nM dexamethasone. All cells then were stimulated for 4 hours with IL-1β, because the activation of PLA2 and downstream signaling events generally requires an inflammatory stimulus. The various treatment conditions are shown below in Table 4. Following macrolide and inhibitor pre-treatment and IL-1 stimulation, the cells were lysed, total RNA was collected, and the poly-A+ mRNA fraction was purified. The resulting microarray data (Appendix C) were analyzed using the methods described in the Examples above.
The tables in Appendix C represent the effects of the arachidonic acid pathway inhibitors (“AA pathway inhibitors”) and the effects of the macrolides (“IL1+macrolide effects”). […] In both tables in Appendix C, the genes that meet this criterion (≧1.3 min fold change) are indicated in bold.
Quantitative analysis was done to determine how well the responses to the different AA pathway inhibitors correlated. The correlation values were assigned a p-value to provide statistical confidence to the correlation value. Correlation between experiments, across all spots showing good detection, was assessed by cosine vector angle to generate the data shown in Tables 7-9. A correlation coefficient close to one indicates strong correlation, whereas a value near zero indicates no correlation. P-values for each correlation coefficient were estimated based on a Fisher permutation test. In this test, each spot's expression ratios were randomly re-ordered across experiments and the degree of correlation between experiments was then reassessed. This was done repeatedly.

[1] = A549 cells, +IL1b +/- inhibitor

C[C@@H]1C[C@H]2[C@@H]3CCC4=CC(=O)C=C[C@]4(C)[C@@]3(F)[C@@H](O)C[C@]2(C)[C@@]1(O)C(=O)CO [Dexa]
wtd means, SpotID 46796 STC1 (stanniocalcin 1) [1]: 1.41
wtd means, SpotID 46950 SERPINA3 (serine (or cysteine) proteinase inhibitor, clade A, member 3) [1]: 1.39
wtd means, SpotID 46985 RIPK2 (RIP2, RICK; receptor-interacting serine-threonine kinase 2) [1]: 1.83
wtd means, SpotID 47155 TNFAIP6 (tumor necrosis factor, alpha-induced protein 6) [1]: 1.27
wtd means, SpotID 47166 SERPINA6 (serine (or cysteine) proteinase inhibitor, clade A, member 6) [1]: 1.33
wtd means, SpotID 47444 TKT (transketolase (Wernicke-Korsakoff syndrome)) [1]: 0.83
wtd means, SpotID 47569 STAT3 (signal transducer and activator of transcription 3) [1]: 1.42
wtd means, SpotID 47698 PTPRJ (protein tyrosine phosphatase, receptor type, J) [1]: 1.38
wtd means, SpotID 47987 THBS1 (thrombospondin 1) [1]: 0.66
wtd means, SpotID 48234 PTPRZ1 (PTP zeta; protein tyrosine phosphatase, receptor-type, Z polypeptide 1) [1]: 1.00
wtd means, SpotID 48239 TLN1 (talin 1) [1]: 1.53
wtd means, SpotID 48288 TRAF5 (TNF receptor-associated factor 5) [1]: 1.42
wtd means, SpotID 48359 RIPK1 (receptor (TNFRSF)-interacting serine-threonine kinase 1) [1]: 1.61
wtd means, SpotID 48392 RIPK1 (receptor (TNFRSF)-interacting serine-threonine kinase 1) [1]: 1.62
wtd means, SpotID 48395 TNFRSF7 (CD27; tumor necrosis factor receptor superfamily, member 7) [1]: 1.53
wtd means, SpotID 48485 UCP1 (uncoupling protein 1 (mitochondrial, proton carrier)) [1]: 1.00
wtd means, SpotID 48500 RPL13A (ribosomal protein L13a) [1]: 1.65
wtd means, SpotID 48603 TEAD4 (TEA domain family member 4) [1]: 1.67
wtd means, SpotID 49330 TNFRSF7 (CD27; tumor necrosis factor receptor superfamily, member 7) [1]: 1.76
wtd means, SpotID 49899 WWOX (WW domain containing oxidoreductase) [1]: 0.76
wtd means, SpotID 49901 TROAP (trophinin associated protein (tastin)) [1]: 0.84
wtd means, SpotID 50379 TNFRSF6 (FAS; tumor necrosis factor receptor superfamily, member 6) [1]: 1.40
wtd means, SpotID 50428 RPLP0 (ribosomal protein, large, P0) [1]: 0.73
wtd means, SpotID 50491 TNFRSF6B (DcR3; tumor necrosis factor receptor superfamily, member 6b, decoy) [1]: 1.36

O=C(O)Cc1cc(I)c(Oc2ccc(O)c(I)c2)c(I)c1 [Triac]
min fold change, SpotID 46796 STC1 (stanniocalcin 1) [1]: 1.00
min fold change, SpotID 46950 SERPINA3 (serine (or cysteine) proteinase inhibitor, clade A, member 3) [1]: 1.00
min fold change, SpotID 46985 RIPK2 (RIP2, RICK; receptor-interacting serine-threonine kinase 2) [1]: 1.43
min fold change, SpotID 47155 TNFAIP6 (tumor necrosis factor, alpha-induced protein 6) [1]: 1.02
min fold change, SpotID 47166 SERPINA6 (serine (or cysteine) proteinase inhibitor, clade A, member 6) [1]: 1.36
min fold change, SpotID 47193 STAT3 (signal transducer and activator of transcription 3) [1]: 1.32
min fold change, SpotID 47332 SERPINB3 (serine (or cysteine) proteinase inhibitor, clade B (ovalbumin), member 3) [1]: 1.06
min fold change, SpotID 47444 TKT (transketolase (Wernicke-Korsakoff syndrome)) [1]: 1.16
min fold change, SpotID 47569 STAT3 (signal transducer and activator of transcription 3) [1]: 1.19
min fold change, SpotID 47697 TNFRSF6B (DcR3; tumor necrosis factor receptor superfamily, member 6b, decoy) [1]: 1.11
min fold change, SpotID 47698 PTPRJ (protein tyrosine phosphatase, receptor type, J) [1]: 1.11
min fold change, SpotID 47987 THBS1 (thrombospondin 1) [1]: 1.00
min fold change, SpotID 48050 RPS6KA2 (ribosomal protein S6 kinase, 90 kD, polypeptide 2) [1]: 1.12
min fold change, SpotID 48234 PTPRZ1 (PTP zeta; protein tyrosine phosphatase, receptor-type, Z polypeptide 1) [1]: 1.00
min fold change, SpotID 48239 TLN1 (talin 1) [1]: 1.34
min fold change, SpotID 48288 TRAF5 (TNF receptor-associated factor 5) [1]: 1.34
min fold change, SpotID 48359 RIPK1 (receptor (TNFRSF)-interacting serine-threonine kinase 1) [1]: 1.00
min fold change, SpotID 48392 RIPK1 (receptor (TNFRSF)-interacting serine-threonine kinase 1) [1]: 1.00
min fold change, SpotID 48395 TNFRSF7 (CD27; tumor necrosis factor receptor superfamily, member 7) [1]: 1.09
min fold change, SpotID 48485 UCP1 (uncoupling protein 1 (mitochondrial, proton carrier)) [1]: 1.15
min fold change, SpotID 48500 RPL13A (ribosomal protein L13a) [1]: 1.25
min fold change, SpotID 48594 RPS6KA2 (ribosomal protein S6 kinase, 90 kD, polypeptide 2) [1]: 1.00
min fold change, SpotID 48603 TEAD4 (TEA domain family member 4) [1]: 1.38
min fold change, SpotID 49330 TNFRSF7 (CD27; tumor necrosis factor receptor superfamily, member 7) [1]: 1.51
min fold change, SpotID 49899 WWOX (WW domain containing oxidoreductase) [1]: 1.51
min fold change, SpotID 49901 TROAP (trophinin associated protein (tastin)) [1]: 1.01
min fold change, SpotID 50379 TNFRSF6 (FAS; tumor necrosis factor receptor superfamily, member 6) [1]: 1.04
min fold change, SpotID 50428 RPLP0 (ribosomal protein, large, P0) [1]: 1.00
min fold change, SpotID 50491 TNFRSF6B (DcR3; tumor necrosis factor receptor superfamily, member 6b, decoy) [1]: 1.36
wtd means, SpotID 46796 STC1 (stanniocalcin 1) [1]: 1.05
wtd means, SpotID 46950 SERPINA3 (serine (or cysteine) proteinase inhibitor, clade A, member 3) [1]: 1.06
wtd means, SpotID 46985 RIPK2 (RIP2, RICK; receptor-interacting serine-threonine kinase 2) [1]: 1.70
wtd means, SpotID 47155 TNFAIP6 (tumor necrosis factor, alpha-induced protein 6) [1]: 1.08
wtd means, SpotID 47166 SERPINA6 (serine (or cysteine) proteinase inhibitor, clade A, member 6) [1]: 1.48
wtd means, SpotID 47193 STAT3 (signal transducer and activator of transcription 3) [1]: 1.47
wtd means, SpotID 47332 SERPINB3 (serine (or cysteine) proteinase inhibitor, clade B (ovalbumin), member 3) [1]: 1.22
wtd means, SpotID 47444 TKT (transketolase (Wernicke-Korsakoff syndrome)) [1]: 0.76
wtd means, SpotID 47569 STAT3 (signal transducer and activator of transcription 3) [1]: 1.34
wtd means, SpotID 47697 TNFRSF6B (DcR3; tumor necrosis factor receptor superfamily, member 6b, decoy) [1]: 1.24
wtd means, SpotID 47698 PTPRJ (protein tyrosine phosphatase, receptor type, J) [1]: 1.17
wtd means, SpotID 47987 THBS1 (thrombospondin 1) [1]: 0.87
wtd means, SpotID 48234 PTPRZ1 (PTP zeta; protein tyrosine phosphatase, receptor-type, Z polypeptide 1) [1]: 1.00
wtd means, SpotID 48239 TLN1 (talin 1) [1]: 1.41
wtd means, SpotID 48288 TRAF5 (TNF receptor-associated factor 5) [1]: 1.60
wtd means, SpotID 48359 RIPK1 (receptor (TNFRSF)-interacting serine-threonine kinase 1) [1]: 1.27
wtd means, SpotID 48392 RIPK1 (receptor (TNFRSF)-interacting serine-threonine kinase 1) [1]: 1.08
wtd means, SpotID 48395 TNFRSF7 (CD27; tumor necrosis factor receptor superfamily, member 7) [1]: 1.50
wtd means, SpotID 48485 UCP1 (uncoupling protein 1 (mitochondrial, proton carrier)) [1]: 1.59
wtd means, SpotID 48500 RPL13A (ribosomal protein L13a) [1]: 1.37
wtd means, SpotID 48603 TEAD4 (TEA domain family member 4) [1]: 1.65
wtd means, SpotID 49330 TNFRSF7 (CD27; tumor necrosis factor receptor superfamily, member 7) [1]: 1.73
wtd means, SpotID 49899 WWOX (WW domain containing oxidoreductase) [1]: 1.62
wtd means, SpotID 49901 TROAP (trophinin associated protein (tastin)) [1]: 0.90
wtd means, SpotID 50379 TNFRSF6 (FAS; tumor necrosis factor receptor superfamily, member 6) [1]: 1.41
wtd means, SpotID 50428 RPLP0 (ribosomal protein, large, P0) [1]: 0.84
wtd means, SpotID 50491 TNFRSF6B (DcR3; tumor necrosis factor receptor superfamily, member 6b, decoy) [1]: 1.56

C[C@@H]1C[C@H]2[C@@H]3CCC4=CC(=O)C=C[C@]4(C)[C@@]3(F)[C@@H](O)C[C@]2(C)[C@@]1(O)C(=O)CO [dexamethasone]
Total # Differential Genes (95% confidence) (A549, IL1 vs IL1 + drug, threshold 1.3, macrolides 50 μM (FMA 10 μM), triacsin C 15 μM, indomethacin and dexamethasone 100 nM): 341
